Experimental data: ChEMBL document CHEMBL6153105, “MDN-0057 to MDN-0060, a Family of Broad-Spectrum Antibiotics against Gram-Negative Pathogens Produced by Ophiosphaerella korrae” (2025)
In brackets after ≈: the same amount, converted by molar mass.

Legend:
Assay type in all cases: functional
[1] = test system: Acinetobacter baumannii; experiment: Antibacterial activity against Acinetobacter baumannii MB5973 incubated for 20 hrs
[2] = test system: Pseudomonas aeruginosa; experiment: Antibacterial activity against Pseudomonas aeruginosa ATCC 27853 incubated for 20 hrs
[3] = test system: Escherichia coli; experiment: Antibacterial activity against Escherichia coli ATCC 25922 incubated for 20 hrs

SMILES	MIC [1] [µg/mL]	MIC [2] [µg/mL]	MIC [3] [µg/mL]
[C-]#[N+]C(=C)[C@](Cc1ccc(OC)cc1)([N+]#[C-])[C@H]1C[C@@H](O)CC[C@@H]1OC(C)=O	0.5 (≈ 1.36 µM)	16 (≈ 43.4 µM)	–
[C-]#[N+]C(=C)[C@](Cc1ccc(OC)cc1)([N+]#[C-])[C@H]1C[C@@H](O)CC[C@@H]1OC(=O)CO	0.25 (≈ 0.65 µM)	2 (≈ 5.2 µM)	16 (≈ 41.6 µM)
[C-]#[N+]C(=C)[C@](Cc1ccc(OC)cc1)([N+]#[C-])[C@H]1C[C@@H](O)C=C[C@@H]1OC(=O)CO	0.25 (≈ 0.654 µM)	64 (≈ 167 µM)	16 (≈ 41.8 µM)
[C-]#[N+]C(=C)[C@](Cc1ccc(OC)cc1)([N+]#[C-])[C@H]1C[C@@H](O)C=C[C@@H]1OC(C)=O	1 (≈ 2.73 µM)	32 (≈ 87.3 µM)	–
C[C@H]1[C@H](NC(=O)/C(=N\OC(C)(C)C(=O)O)c2csc(N)n2)C(=O)N1S(=O)(=O)O [AZTREONAM]	–	–	0.25 (≈ 0.574 µM)
CO[C@H]1/C=C/O[C@@]2(C)Oc3c(C)c(O)c4c(O)c(c(/C=N/N5CCN(C)CC5)c(O)c4c3C2=O)NC(=O)/C(C)=C\C=C\[C@H](C)[C@H](O)[C@@H](C)[C@@H](O)[C@@H](C)[C@H](OC(C)=O)[C@@H]1C [RIFAMPIN]	2.5 (≈ 3.04 µM)	–	–
